Measurements: patent publication US5416111A, “Cyano-containing n-phenyl-amino-terminated non-peptidyl α-succinamidoacyl aminodiols as anti-hypertensive agents” (G.D. Searle & Co., priority 1993, dated 1995)
pIC50: −log10 of the molar value.

Tests used:
human renin = biological target: T1, human renin (Homo sapiens, UniProt P00797); assay: human renin inhibition assay in vitro (angiotensin I produced, radioimmunoassay); format: biochemical; conditions: human plasma, pH 7.4, two hours at 37° C.
T1 construct: purchased National Institute for Biological Standards, London
T1 sequence (P00797 67-406): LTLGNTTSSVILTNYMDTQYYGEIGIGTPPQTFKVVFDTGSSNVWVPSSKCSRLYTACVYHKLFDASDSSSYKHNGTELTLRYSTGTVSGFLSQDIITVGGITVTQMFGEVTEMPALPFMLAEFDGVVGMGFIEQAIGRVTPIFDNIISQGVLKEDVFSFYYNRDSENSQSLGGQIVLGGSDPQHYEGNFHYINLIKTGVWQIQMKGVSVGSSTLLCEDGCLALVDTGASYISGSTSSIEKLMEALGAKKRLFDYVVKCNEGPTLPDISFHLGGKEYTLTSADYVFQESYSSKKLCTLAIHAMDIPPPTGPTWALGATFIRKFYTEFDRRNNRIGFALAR
Method: (§1) Compounds of Formula I were evaluated as inhibitors of human renin in an in vitro assay, as follows: This human renin inhibition test has been previously described in detail [Papaioannou, et al., Clinical and Experimental Hypertension, A7(9), 1243-1257 (1985)]. Human renin was obtained from the National Institute for Biological Standards, London. In a total volume of 0.25 mL 100 mM Tris-acetate buffer at pH 7.4, 25×10-6 Goldblatt units of renin, 0.05 mL of plasma from human volunteers taking oral contraceptives, 6.0 mM sodium EDTA, 2.4 mM phenylmethyl sulfonyl fluoride, 1.5 mM 8-hydroxyquinoline, 0.4 mg/mL BSA, and 0.024 mg/mL neomycin sulfate were incubated for two hours at 37° C. in the presence or absence of renin inhibitors. The produced angiotensin I was determined by radioimmunoassay (New England Nuclear kit). Compounds to be assayed were solubilized in either ethyl alcohol or DMSO and diluted with 100 mM Tris-acetate buffer at pH 7.4 to the appropriate concentration. The final concentration of organic solvent in the reaction mixture was less than 1%. Control incubations at 37° C. were used to correct for effects of organic solvent on renin activity.

hog renin = hog renin inhibition assay in vitro (angiotensin I produced, radioimmunoassay); format: biochemical; conditions: 20 micromolar synthetic tetradecapeptide substrate, pH 7.4, one hour at 37° C.
Method: as §1
The hog renin inhibition assay was performed in a manner similar to the human renin assay, with the following modifications. […] The amount of angiotensin I produced was determined as for the human renin inhibition assay.

pIC50 (human renin): 6.13
pIC50 (hog renin): 5.55
Compound: CC(C)C[C@H](NC(=O)C(CC(=O)N1CCOCC1)Cc1cccc2ccccc12)C(=O)N[C@@H](CC1CCCCC1)[C@@H](O)CO (stereo partly drawn) [Example 9, 3-(N-morpholinocarbonyl)-2-(R,S)-(1-naphthylmethyl)-propionyl-L-leucinamide of (2S ,3R)-2-amino-1-cyclohexyl-3,4-dihydroxybutane]
